Data taken from USRE39192E1, “Supplemented and unsupplemented tissue sealants, methods of their production and use” (American National Red Cross, priority 1990, dated 2006).

Columns and labels:
NIH 3T3 fibroblasts = assay: Cell chemotaxis assay (modified Boyden's chamber), NIH 3T3 fibroblasts; assay type: cell-based
From the text: (§1) NIH/3T3 fibroblasts at passage 126 were purchased from the American Type Culture Collection, Rockville, Md. Cultures from passages 129-133 were used in the chemotaxis assays. Cultures were propagated in DMEM supplemented with 10%. Calf serum and approximately 1% antibiotic antimycotic solution. Human dermal fibroblasts (HDFs) were purchased from Clonetics, Inc. (San Diego, Calif.) at passage 2. Cultures from passages 3-5 were used in the chemotaxis assays. Cultures were cultivated in DMEM supplemented with 20% FBS (Hyclone Laboratories, Inc., Logan, Utah) and approximately 1% antibiotic antimycotic solution (Gibco, Grand Island, N.Y.).
The procedure used to determine cellular chemotaxis was a combination of two known methodologies. A modification of Boyden's chamber was used as follows: Millicell-PCF (Millipore, Inc., Bedford, Mass.) (12.0 μm) 12.0 mm diameter inserts were placed in individual wells of 24 well plates to create the upper and lower chemotaxis chambers. Chemotaxis results were arrived at by performing checkerboard analysis for every combination of cells and growth factors. […] Briefly, cultures were trypsanized and placed in DMEM+0.1% Bovine Serum Albumin (BSA) (Sigma Chemical Co., St. Louis, Mo.) for approximately one hour at 37° C. in a 5% CO2 humidified chamber. Tow to 2.5×10^5 cells in 50 μl were added per insert to the upper chamber of the setup of the 24 well plates. Treatments were added as mentioned above. The assay was kept at 37° C. in a 5% CO2 humidified chamber for 4 hours. All combinations tested were performed in triplicate. At the end of 4 hours, the plates were removed from the incubator and the filters were stained following the protocol for staining included with the Millicell-PCT inserts. Briefly, the fluid surrounding the inside and outside of the Millicell-PCF inserts were removed. Three percent glutaraldehyde (Sigma Chemical Co., St. Louis, Mo.) was added to the outside and inside of the inserts for approximately 20 minutes. Following removal of the 3.0% glutaraldehyde, 0.5% Triton X-100 (E.M. Science, Cherry Hill, N.J.) was added for 5-7 minutes. On removal of the 0.5% Triton X-100, Fisher's Hematoxylin Solution Gill's Formulation (Fisher Scientific, Newark, Del.) No.1 was added for about 10 minutes. This solution was washed off in running distilled water for about 5 minutes. Using a cotton swab the upper side of the filter was swabbed to remove cells which had not migrated. Filters, were mounted lower side facing up on slides in Crystal Mount™ (Biomedia, Inc., Foster City, Calif.) solution and 10 random field were counted per slide both visually at 400× and at 200×using an Image Analyzing System to automate the enumeration of the cells on the underside of the filters.
(§2) As required, checkerboard analysis was carried out to determine random migration, and positive and negative chemotaxis. Growth factors were added to the upper and/or lower chambers to observe whether cells migrated towards the GF alone (chemotaxis), whether migration was random irrespective of whether the growth factor was added to the upper or lower well (chemokinesis) or whether cell migration was against the chemotactic gradient (negative chemotaxis).

[1] = tested on: human umbilical endothelial cells; assay: Human umbilical endothelial cells embedded in FG; assay type: cell-based; details: within 24 hours, maintained at least 5 days
Procedure: To study their growth, human umbilical endothelial cells, 10^5 or more cells per ml, were embedded in FG, the protein concentration of which was 4 mg/ml. The concentration of thrombin in the FG was adjusted to 0.6 NIH U/ml. The culture medium used in all of the experiments was M199 (Sigma Chemical Co., St. Louis, Mo.) supplemented with 10% fetal bovine serum, 10 μg/ml streptomycin, 100 U/ml penicillin, 1 ng/ml FGF-1 and 10 U/ml heparin.
As a control, an identical cell suspension was cultured on a surface coated with fibronectin at 10 μg/cm^2. […] FIGS. 9 and 10 show this situation at 24 and 48 hours, respectively.

[2] = tested on: human dermal fibroblasts (HDFs); assay: Cell chemotaxis assay (modified Boyden's chamber), human dermal fibroblasts; assay type: cell-based
From the text: as §1
The procedure used to determine cellular chemotaxis was a combination of two known methodologies. A modification of Boyden's chamber was used as follows: Millicell-PCF (Millipore, Inc., Bedford, Mass.) (12.0 μm) 12.0 mm diameter inserts were placed in individual wells of 24 well plates to create the upper and lower chemotaxis chambers. Chemotaxis results were arrived at by performing checkerboard analysis for every combination of cells and growth factors. Concentrations ranging from 0.1, 1, 10, 100 ng/ml with/without added heparin (10 U/ml) were used for FGF-1, FGF-2 (no heparin) and FGF-4 with all the cell types mentioned in the materials section. Briefly, cultures were trypsanized and placed in DMEM+0.1% Bovine Serum Albumin (BSA) (Sigma Chemical Co., St. Louis, Mo.) for approximately one hour at 37° C. in a 5% CO2 humidified chamber. Tow to 2.5×10^5 cells in 50 μl were added per insert to the upper chamber of the setup of the 24 well plates. Treatments were added as mentioned above. The assay was kept at 37° C. in a 5% CO2 humidified chamber for 4 hours. All combinations tested were performed in triplicate. At the end of 4 hours, the plates were removed from the incubator and the filters were stained following the protocol for staining included with the Millicell-PCT inserts. Briefly, the fluid surrounding the inside and outside of the Millicell-PCF inserts were removed. Three percent glutaraldehyde (Sigma Chemical Co., St. Louis, Mo.) was added to the outside and inside of the inserts for approximately 20 minutes. Following removal of the 3.0% glutaraldehyde, 0.5% Triton X-100 (E.M. Science, Cherry Hill, N.J.) was added for 5-7 minutes. On removal of the 0.5% Triton X-100, Fisher's Hematoxylin Solution Gill's Formulation (Fisher Scientific, Newark, Del.) No.1 was added for about 10 minutes. This solution was washed off in running distilled water for about 5 minutes. Using a cotton swab the upper side of the filter was swabbed to remove cells which had not migrated. Filters, were mounted lower side facing up on slides in Crystal Mount™ (Biomedia, Inc., Foster City, Calif.) solution and 10 random field were counted per slide both visually at 400× and at 200×using an Image Analyzing System to automate the enumeration of the cells on the underside of the filters.
as §2

[3] = tested on: human ovarian carcinoma cell (OVACAR); assay: Growth inhibition of OVCAR cells by eluates of taxol-supplemented fibrin sealant (MTT assay); assay type: cell-based; details: taxol in solid anhydrous form
Procedure: The kinetics of taxol delivery from fibrin sealant were initially evaluated, by incorporating taxol (0.26 mg), either as an anhydrous solid or dissolved in ethanol, into 400 μl fibrin sealant composition. The resulting supplemented fibrin matrices were then placed in 2 ml histidine buffer, and incubated at 37° C. The buffer was exchanged after two days, and again ten days later. The relative concentration of taxol in the resulting eluates determined by measuring their ability to inhibit the growth of a human ovarian carcinoma cell (OVACAR) in vitro (MacPhee et al., In Current Trends in Surgical Tissue Adhesives: Proceedings of the First International Symposium on Surgical Adhesives, R. Saltz and D. Sierra, eds. Springer-Verlag).
Briefly, 1000 OVCAR cells in 100 μl of growth medium were plated into each well of a 96 well culture plate and incubated for 24 hours. A 100 μl volume of various dilutions of the eluates was then placed into the wells (10 wells per dilution), and the plate incubated at 37° C. After five days, the number of cells in each well was measured using the MTT assay (Rapaport et al., American Journal of Clinical Pathology 97:84 (1992)). […] The resulting chromaphore is detected by spectrophotometry at 570 nm. […]

[4] = Saturation concentration of 5-FU in water; assay type: physicochemical
[5] = Release of 5-FU from FG clots; details: clots containing 50 mg of solid anhydrous 5-FU
[6] = Compatibility of TGF-β2 in Topical Fibrinogen Complex (ELISA, bio-assay); details: after two weeks in TFC at 2-8° C.
Procedure: Fibrinogen and thrombin were prepared per instruction of the American Red Cross, Rockville, Md. Upon reconstitution, the protein concentration of the Topical Fibrinogen Complex, (TFC) was 120 mg/ml (the standard formulation for hemostasis). The human thrombin was reconstituted with 40 mM CaCl2 to yield a solution at 300 units/ml.
To evaluate the compatibility of transforming growth factor β2 (TGF-β2) in Topical Fibrinogen Complex, TFG-β2 (purified recombinant human protein provided by Genzyme Corp., Framingham, Mass.) was spiked into TFC at 10 and 1 μg/ml. Samples were incubated for two weeks at 2-8° C. TGF-β2 was extracted for analysis by passing the gel-like material through a narrow bore stopcock connected to two syringes.

For fibronectin [reference compound], the “concentration of maximal chemotactic response” value (NIH 3T3 fibroblasts) was 20 µg/mL, the “migrated cells (checkerboard analysis)” value (NIH 3T3 fibroblasts; lower 0 μg/ml, upper 20 μg/ml) was 69.6 +/− 12.25 and the “migrated cells (checkerboard analysis)” value (NIH 3T3 fibroblasts; lower 0 μg/ml, upper 50 μg/ml) was 62.0 +/− 2.616. For the same molecule, the “migrated cells (checkerboard analysis)” value (NIH 3T3 fibroblasts; lower 10 μg/ml, upper 0 μg/ml) was 68.03 +/− 10.793, the “migrated cells (checkerboard analysis)” value (NIH 3T3 fibroblasts; lower 10 μg/ml, upper 10 μg/ml) was 47.53 +/− 5.605 and the “migrated cells (checkerboard analysis)” value (NIH 3T3 fibroblasts; lower 10 μg/ml, upper 20 μg/ml) was 64.86 +/− 7.961. For the same molecule, the “migrated cells (checkerboard analysis)” value (NIH 3T3 fibroblasts; lower 10 μg/ml, upper 50 μg/ml) was 74.66 +/− 3.946, the “migrated cells (checkerboard analysis)” value (NIH 3T3 fibroblasts; lower 20 μg/ml, upper 0 μg/ml) was 90.53 +/− 5.203 and the “migrated cells (checkerboard analysis)” value (NIH 3T3 fibroblasts; lower 20 μg/ml, upper 10 μg/ml) was 88.73 +/− 4.152. For the same molecule, the “migrated cells (checkerboard analysis)” value (NIH 3T3 fibroblasts; lower 20 μg/ml, upper 20 μg/ml) was 56.9 +/− 3.289, the “migrated cells (checkerboard analysis)” value (NIH 3T3 fibroblasts; lower 20 μg/ml, upper 50 μg/ml) was 76.23 +/− 1.8190 and the “migrated cells (checkerboard analysis)” value (NIH 3T3 fibroblasts; lower 50 μg/ml, upper 0 μg/ml) was 72.43 +/− 8.276. For the same molecule, the “migrated cells (checkerboard analysis)” value (NIH 3T3 fibroblasts; lower 50 μg/ml, upper 10 μg/ml) was 91.3 +/− 1.003, the “migrated cells (checkerboard analysis)” value (NIH 3T3 fibroblasts; lower 50 μg/ml, upper 20 μg/ml) was 63.26 +/− 3.835 and the “migrated cells (checkerboard analysis)” value (NIH 3T3 fibroblasts; lower 50 μg/ml, upper 50 μg/ml) was 57.46 +/− 2.287. The “migrated cells (checkerboard analysis)” value (NIH 3T3 fibroblasts; lower compartment 0 μg/ml, upper compartment 10 μg/ml) was 62.3 +/− 3.269, the cell morphology [1] was “acquired a cobblestone shape” and the “concentration of maximal chemotactic response” value [2] was 20 µg/mL.

In the case of `CC(=O)O[C@H]1C(=O)[C@@]2(C)[C@H]([C@H](OC(=O)c3ccccc3)[C@]3(O)C[C@H](OC(=O)[C@H](O)[C@@H](NC(=O)c4ccccc4)c4ccccc4)C(C)=C1C3(C)C)[C@]1(OC(C)=O)CO[C@@H]1C[C@@H]2O` [taxol, paclitaxel], the “time OVCAR cells were significantly inhibited” value [3] is reported as “up to 85 days”.

With `O=c1[nH]cc(F)c(=O)[nH]1` [5-FU, 5-fluorouracil] the “concentration in water saturated with 5-FU” value [4] was 17000 µg/mL and the “duration of 5-FU delivery” value [5] was “at least 75 hours”.

B1: TGF-β2: purified recombinant human protein provided by Genzyme Corp., spiked into TFC / fibrin clot (protein, UniProt P61812 303-414, looked up)
Transforming growth factor …: ALDAAYCFRNVQDNCCLRPLYIDFKRDLGWKWIHEPKGYNANFCAGACPYLWSSDTQHSRVLSLYNTINPEASASPCCVSQDLEPLTILYYIGKTPKIEQLSNMIVKSCKCS
With B1 the bio-assay of extract [6] was “bioactive”.
